Assay results taken from patent US20250223560A1, “NOX4 INHIBITOR COMPOSITIONS AND METHODS FOR REGENERATION OF DYSTROPHIC MUSCLE” (FULCRUM THERAPEUTICS, INC., priority 2022, published 2025).
Like-named read-outs stand apart in the source and are kept apart here.

Test system: Bone Marrow Derived Mesenchymal Stem Cells, human (BM-MSC); myofibroblast content
Assay: Myofibroblast reduction phenotype in TGF-beta-1 fibrogenic differentiation culture (high-content imaging)
Format: cell-based
Procedure: Bone Marrow Derived Mesenchymal Stem Cells, human (BM-MSC, ATCC PCS-500-012) were cultured in medium composed of Mesenchymal Stem Cell Basal Medium foe Adipose, Umbilcal and Bone Marrow-derived MSCs (ATCC PCS-400030 and Mesenchymal Stem Cell Growth for Bone Marrow-derived MSCs (ATCC PCS-500-041). Cells were seeded at a density of 15,000 cells/well in a 96-well format.
To induce fibrogenic differentiation BM-MSCs were cultured in a medium composed by Dulbecco's Modified Eagle Medium, 2% horse serum (HS) (Sigma H1270) and 5-10 ng/ml TGF-beta-1 (PreproTech 100-21). Cells were cultured in basal media for 2 days before being switched to fibrogenic differentiation media for 5 days, after which they were taken down for downstream assays. Compound treatment was added when media was switched to fibrogenic differentiation media, cells were treated with 0.1% DMSO if not receiving compound.
Cells were fixed in 4% PFA for 10 min at RT. Fixed cells were washed three times in 1×PBS and incubated in permeabilization solution (0.5% Triton X-100 in 1×PBS) for 10 min. Unspecific binding were saturated by incubating samples in blocking solution (5% donkey serum in 1×PBS) for 1 h. The cells were incubated at RT for 1 hour with gentle shaking in the presence of primary antibody against, alpha-smooth muscle actin (1:1000, Sigma™ A5228). The cells were washed three times with 0.05% Tween-20 in 1×PBS and incubated, for 1 hour at RT, with host-specific secondary antibodies in addition to counterstaining for Alexa Fluor Plus 750 Phalloidin (1:2000, Invitrogen™, A30105) and DAPI (1:2000). Primary and secondary antibodies were diluted according to the manufacturer's recommendations in blocking solution+0.1% Triton X-100. Finally, the cells were washed three times with 0.05% Tween-20 in 1×PBS, washed twice with 1×PBS and stored at 4° C. Images were acquired on a Thermo Scientific™ CellInsight™ CX7LED high content analysis (HCA) imaging instrument using a 10× objective. Nine fields per well were captured for quantification.
Columbus™ software (version 2.9.1, Perkin Elmer®) was used for analysis of acquired images. A custom analysis pipeline was constructed to quantify the percentage of myofibroblasts within the well. First, nuclei were segmented using “Method B” and intensity and morphology properties were calculated using standard settings. Second, viable nuclei were identified by gating on nuclei intensity, area, and roundness of the segmented objects. Next, a region of interest was then defined around the selected viable nuclei by expanding the outer boarder by […]. STAR morphology and SER texture properties were calculated within the region of interest for the alpha-smooth muscle actin and phalloidin channels using the following parameters: profile width=4 px, scale=1 px, Kernel normalization. The calculated morphology and texture properties were used to train a linear classifier consisting of two classes, myofibroblasts and mesenchymal stem cells, by selecting >100 objects in each negative control (DMSO) and positive control (fibrogenic differentiation media) conditions. The linear classifier was then applied to the untrained test wells using a batch analysis to calculate the percentage of myofibroblasts within each image using a formula output (myofibroblasts:number of objects/viable nuclei:number of objects)*100. Results were averaged across the nine fields imaged per well.
The initial six NOX4 inhibitors were assessed in replicate experiments for both potency of myofibroblast reducing activity and an associated IC50 for the myofibroblast reduction phenotype was determined (Table 1).

In the case of `CN(C)c1cccc(-c2c3c(=O)n(-c4ccccc4Cl)[nH]c3cc(=O)n2C)c1` [FTX1620, Setanaxib], the IC50 (Homo sapiens, BMMSC, first experiment, read-out: IC50 Phenotype (myofibroblast reduction)) is reported as 77.3 nM, the IC50 (Homo sapiens, BMMSC, replicate experiment, read-out: IC50 Phenotype Replicate) is reported as 126 nM and the IC50 (replicate experiment, read-out: IC50 Phenotype Replicate) is reported as 126 nM. For the same compound, the “reduction of myofibroblast content (concentration-response)” value (treated cells in culture) was “reduced the myofibroblast content of treated cells in a dose-responsive manner”.
